Assay results as given in patent publication US20080255186A1, “Pyrazolo[3,4-B]Pyridine Compound, and Its Use as a Pde4 Inhibitor” (priority 2005, published 2008).
“And” between values parts separate entries of the source, which are not always exact repeats. Identical values can stand only once.

Test system: TNF-α (TNF-alpha) production in Human Whole Blood
Assay: Inhibition of TNF-alpha production in Human Whole Blood (MSD assay)
Assay type: cell-based
Method: This is an optional supplementary test, e.g. for potentially orally-administrable PDE4 inhibitors. Also, as the assay may measure the effect of PDE4 inhibitors after loss by protein binding, it might possibly also be relevant to externally-topically-administrable PDE4 inhibitors as protein-binding-loss of compound is possible during transport through the skin.
Test compounds are prepared as a ca. 10 mM stock solution in DMSO and a dilution series prepared in DMSO with 8 successive 3-fold dilutions, either directly from the 10 mM stock solution or from a more dilute solution in DMSO. The compound is added to assay plates using a Biomek Fx liquid handling robot.
Heparinised blood drawn from normal volunteers is dispensed (ca. 100 μl=ca. 100 ul) into microtitre plate wells containing ca. 0.5 or ca. 1.0 μl (ul, microlitres) of an appropriately diluted test compound solution. […] Plasma TNFα content is determined by electrochemiluminescence assay using the MSD technology (see below), the IGEN technology (see below) or by enzyme linked immunosorbant assay (ELISA) (see below). […]
For the Whole Blood assay, plates are washed after 2 hours shaking with a Skanwasher 300 version B (Skatron Instruments AS. PO Box 8, N-3401 Lier, Norway). […] About 150 μl (ul) of Read Buffer T (2×) is added to the plates, which are then read on a MSD Sector 6000. […]

IC50 (Homo sapiens, n = about 3 or 4, LPS-stimulated, read-out: Whole Blood, Mean pIC50 (MSD assay) (converted)): ~0.398 nM
Whole Blood individual pIC50 test values (MSD assay) (individual measurements): ~9.19 and ~9.50 (2×) and > 9.82
Structure (SMILES): CCc1nc2c(cnn2CC)c(NC2CCOCC2)c1CNC(=O)c1cc(C)no1 [Example 1, N-{[1,6-diethyl-4-(tetrahydro-2H-pyran-4-ylamino)-1H-pyrazolo[3,4-b]pyridin-5-yl]methyl}-3-methyl-5-isoxazolecarboxamide]
